The record followed here is a melting point compilation (Tetko et al.; mined from patent text by program, amines drawn as free bases though some values may be those of a salt).

In general, melting point refers to the temperature, or range, at which the solid turns liquid.

Residues, ends and D or L forms follow the SMILES beside them. *: point of attachment. Boc = CC(C)(C)OC(=O)*; NHNH2 = NN* Where only a bound is given, the exact number is not on record here.

In turn, `CCOC(=O)C1=C(C)NC(N=CN(C)C)=C(C(=O)OCC)C1c1ccccc1[N+](=O)[O-]` (stereo unspecified) showed a melting point of 126 °C. As for `Cc1cc(Oc2ccc(C(F)(F)F)cc2[N+](=O)[O-])n[nH]1`, the melting point lay within 89 to 91 °C. Take `O=C(O)c1cccc(-c2cccc3c2CCN(Cc2cccc(C(F)(F)F)c2)C3)c1`: the melting point was in the range of 230 to 231 °C. As to `Cc1cc2cnccc2s1`, the melting point was in the range of 47 to 48 °C. `Cn1cc2c(nc(NC(=O)Nc3ccc(CC(=O)NCCOCCOCCNC(=O)OC(C)(C)C)cc3)n3nc(-c4ccco4)nc23)n1` registered a melting point of 157 to 165 °C.

As for `Cn1cc(C2=C(c3cn(CCCCl)c4ccccc34)C(=O)NC2=O)c2ccccc21`, the melting point was in the range of 254 to 256 °C. The compound `Nc1ccc(OCCCN2C(=O)c3ccccc3C2=O)cc1[N+](=O)[O-]` returned a melting point of 164 °C. `COc1ccccc1NC(=O)Nc1nc(Nc2ccccc2-c2ccccc2)nc(N2CCC(C(=O)O)CC2)n1` registered a melting point of 130 to 135 °C. As for `COc1ccc2nc(-c3cc(F)c(OC)c(F)c3)cc(Br)c2c1`, the melting point lay in the range of 170 to 172 °C. Regarding `O=C(O)[C@@H]1CCCN1C(=O)CCBr`, the melting point fell in the range of 83 to 85 °C. Take `CCOC(=O)CC(c1cccnc1)N1C(=O)c2ccccc2C1=O` (stereo unspecified): the melting point is 72.3 to 72.8 °C. To `COC1NC(=O)CC2CC1c1ccccc12` (stereo unspecified) belongs 205 to 207 °C; to `Cc1c(-c2ccc(OC3CCCC3)cc2)[nH]c2ccc(OCc3ccccc3)cc12`, 161 to 167 °C; to `Cc1ccc(C=O)c(OCc2ccc(OCc3nc(-c4ccccc4)oc3C)cc2)n1`, 114 to 115 °C. For `CC(C)(C)c1cc(-c2cncn2CCCCl)cc(C(C)(C)C)c1O`, the melting point lay within 178 to 179 °C. To `CC(=O)Nc1ccc(S(=O)(=O)Nc2cc(C)on2)cc1` belongs 220 to 222 °C; to `COc1cccn2nc(S(=O)(=O)Nc3c(F)cccc3F)nc12`, 254 to 255 °C; to `CCOP(=O)(OCC)Oc1cc2c(c3ccccc13)Nc1ccccc1S2`, 162 to 163 °C. Regarding `Cc1ccc(Sc2c(Cl)c(Cl)c(C(O)=NCCO)c(C(=O)O)c2Cl)cc1`, the melting point was in the range of 205 to 209 °C.

`Nc1ccc2c(c1)c(=O)[nH]c(=O)n2CCCCN1CCC(OC(c2ccccc2)c2ccccc2)CC1` had a melting point of 131 to 133 °C. To `CC1=C(N)C(C)C2CC(C)(CC3CCN(c4ccc(-n5ccnc5)cc4)CC3)OC2=C1C` (stereo unspecified) belongs 170 to 172 °C; to `CN(C)C=Nc1c(Cl)cc(N=Cc2ccc(-c3ccccc3)cc2)cc1Cl`, 108 to 110 °C; to `C=CCOc1ccc2nc(OCC=C(C)C)ccc2c1`, 53 to 54 °C.

Take `O=C(Cc1ccnc(Cl)n1)c1ccc(F)cc1`: the melting point was 112 to 113 °C. To `COc1ccc(N2CN(C)CNC2=S)cc1` belongs 194 °C; to `COc1cc(C(=O)CBr)cc([N+](=O)[O-])c1O`, 147 to 149 °C; to `COCCOc1cc([N+](=O)[O-])c2[nH]c(C(=O)O)cc2c1`, 192 to 193 °C. The compound `COC(=O)c1cc(C(=O)CBr)cs1` gave a melting point of 112 to 114 °C. Take `COc1ccccc1Sc1c(NS(=O)(=O)c2ccc(C(C)(C)C)cc2)nc(CO)nc1OC`: the melting point stood at 152 °C. To `CCCCCS(=O)(=O)NC(=O)/C=C/c1ccc(OC(C)C)cc1Oc1ncc(C(F)(F)F)cc1Cl` belongs 142 to 144 °C. `COc1ccc2c(c1)C(=O)N(CCCN(C)CCN1C(=O)c3cc(OC)ccc3C(C)(C)C1=O)C(=O)C2(C)C` returned a melting point of 142 to 143 °C. On to `CC(C)(C)OC(=O)NCc1cccc(C(O)c2cc(Cl)ccc2NCc2ccc(OCc3ccccc3)c(OCc3ccccc3)c2)c1` (stereo unspecified), for which the melting point is 118 to 120 °C. `CCCCCCCSc1nn2c(=O)c(C)c(Cl)nc2s1` gave a melting point of 79 to 81 °C.

`COc1nsc(SCOCC#CI)c1C#N` had a melting point of 124 to 125 °C. Turning to `CCOC(=O)c1csc(NC(=O)c2cc(OC)c(OC)cc2O)n1`, the melting point was 218 to 220 °C. For `C#CCOc1ccc2cc(C(=O)OCC)c(=O)oc2c1`, the melting point amounted to 252 °C.

`COc1ccc(CN(C(=O)C2CCOc3c(O)cccc32)c2ccc(C(C)C)cc2)cn1` (stereo unspecified) showed a melting point of 141 °C.

In the case of `COC(=O)C12COc3cc(C(F)(F)F)ccc3C1=NN(C(=O)Nc1ccc(Br)cn1)C2` (stereo unspecified), the melting point lay in the range of 179 to 181 °C.

`CN1CC2CCCC(C1)C2=NO` gave a melting point of 111 to 112 °C. `Cc1ccc(-c2cc(N)c(Cl)c(C(=O)O)n2)cc1C` registered a melting point of 192 to 194 °C. The compound `CCNc1nc(-c2ccc(NC(=O)NCc3cccnc3)cc2)ccc1C(=O)NC` showed a melting point of 260 to 263 °C. `CC(C)C(=O)N1CCC(NC(=O)c2ccccc2Oc2ccc(Cl)cc2Cl)CC1` displayed a melting point of 51 to 54 °C. In the case of `O=C1Cc2c(Cl)cccc2Sc2ccc(C(F)(F)F)cc21`, the melting point was 105 to 108 °C. For `COc1ccc([C@H]2c3[nH]c4ccccc4c3C[C@H]3C(=O)N(CCc4ccccn4)C(=O)N23)cc1` (relative stereo), the melting point lay in the range of 140 to 143 °C.

Consider `CC1COc2c(N3CCN(C#N)CC3NC(=N)N)c(F)cc3c(=O)c(C(=O)O)cn1c23` (stereo unspecified), for which the melting point fell in the range of 298 to 300 °C. `CCCCC(=O)Nc1ccc(Cl)cc1C(=O)OC` had a melting point of 48 to 49 °C. As for `Cc1cc(COc2c(Cl)cc(CCl)cc2Cl)oc(=O)c1`, the melting point came out at 136 °C. To `COc1cc2c(cc1OC)C(=CN1CCN(C)CC1)C(=O)N2` belongs 154 to 156 °C; to `CCCn1cnc2c(=O)[nH]c(N)nc21`, above 300 °C. Regarding `O=C(N[C@@H](Cc1ccccc1)C(=O)N[C@@H](Cc1cncn1COCc1ccccc1)C(=O)O)C1CCCC1`, the melting point fell in the range of 195 to 197 °C. To `CCCCOP(=O)(CCCCCC1(C(=O)NCC(F)(F)F)c2ccccc2-c2ccccc21)OCCCC` belongs 88 to 91 °C; to `Cc1ccc(-c2cc(CCCO)nn2-c2ccc(S(N)(=O)=O)cc2)cc1`, 123 to 126 °C; to `CCCCOC(=O)c1c(C)nc2cc(OC)c(OC)cc2c1-c1ccc(OC)c(OC)c1`, 119 to 120 °C.

On to `CC(C)(C)OC(=O)[C@H](CC(=O)c1ccc2oc3ccccc3c2c1)NC(=O)C(F)(F)F`, for which the melting point lay within 92 to 94 °C. In turn, `CNC(=O)Cc1cccc2c(=O)cc(C3=CCCCC3)oc12` returned a melting point of 213 to 214 °C. As for `CS(=O)(=O)c1ccc(-c2cc(CO)cn2-c2ccc(F)cc2)cc1`, the melting point fell in the range of 88 to 90 °C. `Cc1cc(-n2nc(C(F)(F)F)cc2-c2ccc(S(C)(=O)=O)cc2)ccc1Br` came in with a melting point of 127 to 129 °C. For `O=C(O)c1ccccc1-c1cc(-c2cccc(C(F)(F)F)c2)no1`, the melting point was 175 to 176 °C. `Cn1ncc(C(=O)N2CCOCC2)c1C(=O)Nc1ccn2nc(N3CCOCC3)nc2c1` yielded a melting point of 206 to 208 °C. In turn, `O=C1Nc2cc(Cl)ccc2C(=O)C1c1coc2ccccc12` (stereo unspecified) displayed a melting point of 290 °C. Compound `CCOc1nc2ccccc2nc1N(CC)C(=O)N1CCN(c2cc(OC)cc(OC)c2)CC1` had a melting point of 144 to 146 °C.

In turn, `Fc1ccc(-c2c[nH]cc2-c2ccc(F)cc2)cc1` came in with a melting point of 142 °C. Consider `O=C(CCl)NCC(O)(c1ccccc1)c1ccccc1`, for which the melting point was in the range of 178 to 180 °C. To `COC1(c2cccc(S(=O)(=O)c3ccc4c(c3)C(C)(C)C(=O)N4C)c2)CCOCC1` belongs 164 to 166 °C; to `NCC1Cc2cc(C(F)(F)F)cc(-c3ccoc3)c2O1` (stereo unspecified), above 250 °C; to `O=C(c1cc2cc3[nH]c(=O)[nH]c3cc2[nH]1)N1CCC(Cc2ccccc2)CC1`, above 270 °C.

Compound `CC(=O)NCCNc1nc(-c2ccccc2)nc2[nH]c(C(=O)N3CCOCC3)cc12` showed a melting point of 250 °C. To `CCc1nnc(-c2ccc(O)cc2)n1-c1ccccc1` belongs 275 °C; to `COc1ccc(C(=O)c2ccc([N+](=O)[O-])cc2)cc1OC`, 160 to 162 °C; to `COc1cccc(CC(=O)O)c1OCCCc1cn(-c2ccc(C(F)(F)F)cc2)nc1C(C)C`, 114 to 115 °C. Compound `CCOC(=O)c1nc(C(=O)Oc2ccccc2)sc1N` registered a melting point of 168 °C. To `CC(C)(ON=C(C(=O)O)c1ccco1)C(N)=O` belongs 160 to 162 °C; to `Nc1cc(C(c2cc(F)ccc2F)S(=O)(=O)c2ccc(F)cc2)c(Cl)cn1` (stereo unspecified), 157 to 159 °C; to `CC(C)(C)C(=O)Nc1ccc(-c2ccncc2)cc1`, 274 to 279 °C.

Compound `CC(=O)Nc1cccc2c1CC(=O)CC2` returned a melting point of 203 to 205 °C. The compound `Cc1nc(Cl)c2c(c1O)COC2(c1ccccc1)c1ccccc1` had a melting point of 240 °C. Compound `CSCCC(NC(=O)C(CCCCNC(=O)OC(C)(C)C)NC(=O)C(Cc1ccc(O)cc1)NC(=O)C1CCCN1)C(=O)NN` (stereo unspecified) (H-PYK(Boc)M-NHNH2; configuration not given here) had a melting point of 206 to 207 °C.

For the compound `COc1ccc(P(=O)(c2ccc(OC)cc2)c2ccc(OC)cc2)cc1`, the melting point amounted to 145 °C. Compound `COc1ccccc1N1CCN(CNC(=O)c2ccc(Cl)cc2)CC1` returned a melting point of 145 to 147 °C. For `Cc1c(-c2ccccc2)nn(C(C)C(=O)N(C)C)c1[N+](=O)[O-]` (stereo unspecified), the melting point fell in the range of 141 to 143 °C.

`COc1cccc([C@H]2O[C@H](CC(=O)Nc3ccsc3C(=O)O)C(=O)N(CC(C)(C)CO)c3ccc(Cl)cc32)c1OC` had a melting point of 154 to 155 °C.

Consider `CCCc1nc2c(N)nc3ccccc3c2n1CCCCN(OC)C(=O)Nc1ccccc1`, for which the melting point is 164 to 166 °C. To `Cc1cccc(NC(=O)NCC(=O)N(CC(=O)N2CCSC(C)(C)C2)c2ccccc2)c1` belongs 186 °C; to `CCOc1nc(-c2ccc(F)cc2C)c2c(n1)N(c1c(F)cccc1F)C(=O)NC2`, 191 to 194 °C. As to `CN1CCC(c2c[nH]c3ccc(NC(=O)c4ccc(Cl)s4)nc23)CC1`, the melting point is 118 to 120 °C. To `COC(=O)CCc1cc2cc(Cl)ccc2n1S(=O)(=O)c1ccc(OC)cc1` belongs 98 to 99 °C.
